Results on 15 compounds are retold here after patent US5424185A, “Human high-affinity neurotransmitter uptake system” (Baylor College of Medicine, priority 1990, dated 1995).

Data set [1] deals with GABA transporter (L-GAB1 cells). The experiment in a line: [3H]GABA uptake by L-GAB1 cells. It counts as cell-based, human. The conditions noted are these: for effect of GABA uptake inhibitors on [3H]GABA uptake by L-GAB1 cells: inhibitor 1 to 100 μM; for inhibition of total [3H]GABA uptake by L-GAB1 cells: effect saturating by 100 μM. How it is done:
Using concentrations of [^3 H] GABA ranging from 2 to 500 μM, the kinetic profile of GABA uptake was determined for both L-GAB1 and L-M cells. The initial velocity of GABA uptake was measured and plotted against the corresponding [^3 H] GABA concentration for both cell lines. […] The velocity profile for L-GAB1 cells was subtracted by that of L-M cells, and the resulting data used for a double-reciprocal plot of velocity-^1 against GABA concentration-^1. The velocity profile for L-M cells was also transformed into a double-reciprocal plot.
Several known inhibitors of high-affinity GABA uptake were used to examine their efficacies in inhibiting [^3 H] GABA uptake by L-GAB1 cells. […] Each of these agents was used at several concentrations ranging from 1 to 100 μM in assays of [^3 H] GABA uptake by L-GAB1 cells. […] GABA uptake by L-GAB1 cells.
L-GAB1 cells were also analyzed in terms of their ligand-specificity in the high-affinity GABA uptake mechanism.

The test system of data set [2] is neuronal and glial GABA uptake systems in the CNS. The conditions noted are these: literature, cited from earlier work; for IC50: neuronal and glial uptake systems, read-out: IC50, high-affinity GABA uptake in the CNS.
Data set [3] relates to Cultured Astrocytes (rat). The conditions noted are these: read-out: Representative IC50, Cultured Astrocytes (rat); literature values; cited from earlier work.
The subject of another data set is Purified Synaptosomes. The conditions noted are these: literature value, reference printed beside it; read-out: Representative IC50, Purified Synaptosomes; cited from earlier work.
Data set [4] addresses T1, human 5HT transporter (L-S2 cells) (Homo sapiens, UniProt P31645).
T1 construct: expressed in transfected cells; host or cells: mouse L-M fibroblasts (ATCC CCL 1.2) transfected with total human genomic DNA and pSV2neo; clone L-S2
The experiment in a line: [3H]-5-HT uptake by L-S2 cells. The class given is cell-based. How it is done: (§1) L-S1 and L-M cells were preplated into 96-well culture plates. For uptake assays, the growth medium was removed from each well and the cells rinsed several times with oxygenated Ringer's buffer supplemented with 0.5 mM pargyline and 0.5 mM ascorbate. […] The radioligand was added to a final concentration of 0.1 μM and incubated with the cells at 37° C. for 40 minutes. The incubation mixture was then removed and each well was washed three times at room temperature with Ringer's buffer. The cells remaining in the wells were lysed with 1% sodium dodecyl sulphate (SDS) and transferred to counting vials containing 5 ml of ACS scintillant (Amersham), for liquid scintillation spectrometry. For each assay, 6-8 parallel sets of wells were assayed simultaneously.
(§2) Non-specific activity was determined from parallel assays carried out at 0° C. Initial velocities were calculated in terms of pmol/mg protein/min by subtracting velocity values obtained at 0° C. from those obtained at 37° C.
(§3) Cells were assayed in the presence of each inhibitor for 40 minutes at 37° C., washed with Ringer's buffer and prepared for counting as previously described. Five confluent wells were assayed at each inhibitor concentration. The IC50 value for each inhibitor was determined by plotting the percent activity against the logarithm of inhibitor concentration. Measured levels of uptake in the presence of inhibitors were expressed as the percentage of maximal uptake (100 %) in the absence of inhibitor.

The subject of data set [5] is L-M cells. Briefly: [3H]-5-HT uptake by untransfected L-M cells. The class given is cell-based, mouse. As to the method: as §1, with “For each assay, 6-8 parallel sets of wells were assayed simultaneously.” left out
as §2
Cells were assayed in the presence of each inhibitor for 40 minutes at 37° C., washed with Ringer's buffer and prepared for counting as previously described. […] The IC50 value for each inhibitor was determined by plotting the percent activity against the logarithm of inhibitor concentration. Measured levels of uptake in the presence of inhibitors were expressed as the percentage of maximal uptake (100 %) in the absence of inhibitor.

Another data set deals with Synaptosomes. The conditions noted are these: literature values; read-out: Representative IC50, Synaptosomes; cited from earlier work.
The target in data set [6] is T2, human 5HT transporter (L-S1 cells) (Homo sapiens, UniProt P31645).
T2 construct: expressed in transfected cells; host or cells: mouse L-M fibroblasts (ATCC CCL 1.2) transfected with total human genomic DNA and pSV2neo; clone L-S1
The experiment in a line: [3H]-5-HT uptake by L-S1 cells. The class given is cell-based. How it is done: The cells were incubated at 37° C. for an additional 40 min.
L-S1 and L-M cells were preplated into 96-well culture plates. For uptake assays, the growth medium was removed from each well and the cells rinsed several times with oxygenated Ringer's buffer supplemented with 0.5 mM pargyline and 0.5 mM ascorbate. […] […] […] The cells remaining in the wells were lysed with 1% sodium dodecyl sulphate (SDS) and transferred to counting vials containing 5 ml of ACS scintillant (Amersham), for liquid scintillation spectrometry. For each assay, 6-8 parallel sets of wells were assayed simultaneously.
as §2, §3

Data set [7] concerns L-M cells. The conditions noted are these: 2 to 500 μM [3H]GABA, low-affinity system.
The test system of the next data set is Rabbit Platelets. The conditions noted are these: read-out: Representative IC50, Rabbit Platelets; literature value; cited from earlier work.
Another data set concerns Human Platelets. The conditions noted are these: literature values; read-out: Representative IC50, Human Platelets; cited from earlier work.
A further data set concerns Rat Synaptosomes. The conditions noted are these: literature values; read-out: Representative IC50, Rat Synaptosomes; cited from earlier work.
The subject of data set [8] is T3, NCCc1c[nH]c2ccc(O)cc12.
T3 construct: expressed in transfected cells; host or cells: mouse L-M fibroblasts (ATCC CCL 1.2) transfected with total human genomic DNA and pSV2neo; clone L-S1
Briefly: [3H]-5-HT uptake by L-S1 cells. The conditions noted are these: other: 10 min, 37° C. minus 0° C., Lineweaver-Burk. It counts as cell-based, human.

The test system of data set [9] is human L-glutamate transporter (L-Glul cells). Briefly: L-[3H]glutamate uptake by L-Glul cells. The class given is cell-based. The conditions noted are these: unlabelled neurotransmitters, EAA receptor ligands, co-transporter inhibitors. As to the method:
Both L-Glul and L-M cells were assessed for their kinetic properties of [^3 H] Glu uptake, and the results were analyzed by fitting to Michaelis-Menten kinetics. This was done by incubating cells with differing concentrations of [^3 H] Glu (ranging from 0.05 to 2 μM) for 10 minutes, at both 37° C. and 0° C. The amount of [^3 H] Glu retained by the cells following incubation was then quantitated and converted (using the manufacturer's specific activity for [^3 H] Glu to the corresponding picomole-equivalent of the radioligand, for each concentration of radioligand at each temperature. Then, the pmol value is normalized by the length of incubation and the amount of protein corresponding to the number of cells assayed. The resulting value, expressed in units of pmol/min/mg protein, is the initial velocity value for each concentration of [^3 H] Glu at each temperature. The initial velocity measured at 37° C. represents total initial velocity; the initial velocity measured at 0° C. represents nonspecific initial velocity. The difference between these two velocity values is then the specific initial velocity, denoted by "V", for each concentration of [^3 H] Glu.
Various drugs specific for excitatory amino acid (EAA) receptor subtypes were assessed for their effects on [^3 H] Glu uptake by L-Glul cells.
Glu uptake by L-Glul cells.

The test system of data set [10] is T4, NCCc1c[nH]c2ccc(O)cc12.
T4 construct: expressed in transfected cells; host or cells: mouse L-M fibroblasts (ATCC CCL 1.2) transfected with total human genomic DNA and pSV2neo; clone L-S2
Briefly: [3H]-5-HT uptake by L-S2 cells. It counts as cell-based, human. The conditions noted are these: other: 10 min, 37° C. minus 0° C., Lineweaver-Burk.

The mark [11] stands for this setting: ligand 10 μM, 10 min preincubation, 0.1 μM [3H]-5HT, 40 min, 37° C. (FIG. 1).

Where “and” joins values, the source holds several entries; their conditions need not be identical. Identical values can stand only once. Like-named read-outs stand apart in the source and are kept apart here.

What is called IC50 is the concentration needed to halve the response being measured. The Km is the concentration of substrate that gives half-maximal velocity. One may read the Vmax as the top rate of the reaction or transport when substrate is in excess.

T1 sequence (P31645 whole entry): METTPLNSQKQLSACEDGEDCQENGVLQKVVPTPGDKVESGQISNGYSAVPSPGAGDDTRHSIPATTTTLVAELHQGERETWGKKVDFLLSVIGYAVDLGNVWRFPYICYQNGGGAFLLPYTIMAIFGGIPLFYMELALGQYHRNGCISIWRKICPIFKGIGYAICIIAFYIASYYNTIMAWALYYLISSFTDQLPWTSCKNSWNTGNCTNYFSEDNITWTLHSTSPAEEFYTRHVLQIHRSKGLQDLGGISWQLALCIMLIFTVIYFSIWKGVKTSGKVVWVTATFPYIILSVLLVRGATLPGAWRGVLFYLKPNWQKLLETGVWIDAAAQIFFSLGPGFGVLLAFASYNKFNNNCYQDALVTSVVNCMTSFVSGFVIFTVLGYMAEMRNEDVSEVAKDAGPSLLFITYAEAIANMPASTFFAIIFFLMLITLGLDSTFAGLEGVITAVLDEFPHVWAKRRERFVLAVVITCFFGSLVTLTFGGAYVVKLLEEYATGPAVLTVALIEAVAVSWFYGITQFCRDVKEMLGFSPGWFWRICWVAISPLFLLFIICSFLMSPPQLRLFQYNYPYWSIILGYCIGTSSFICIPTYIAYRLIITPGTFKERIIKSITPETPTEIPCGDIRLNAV
T2 sequence (P31645 whole entry): as above

Take `O=C(O)C1=CCCNC1` [Guvacine]: in data set [1], the “effect of GABA uptake inhibitors on [3H]GABA uptake by L-GAB1 cells” value (“effect of GABA uptake inhibitors” below) is “without measurable effect”. In addition, the IC50 in data set [2] was 10000 to 200000 nM.
`O=C(O)[C@@H]1CNCC[C@@H]1O` (relative stereo) [4-cis-OHNA, 4-cis-hydroxynipecotic acid]: in [1], the “effect of GABA uptake inhibitors” value is on record as “without measurable effect”. Besides, the IC50 in data set [2] is 10000 to 200000 nM.
Take `CN(C)CCCN1c2ccccc2CCc2ccccc21` [Imipramine, imipramine]: the half-inhibitory concentration (IC50) in data set [3] was 140 nM; in the data set with Purified Synaptosomes, 210 nM; in the data set with Synaptosomes, 100 nM. The “effect of competing ligand on [3H]-5HT uptake, L-S2” value in [4] is “significantly inhibited”. Further, in [4], the “mechanism of inhibition of 5-HT uptake, L-S2” value was “competitive inhibition”. The “effect on 5-HT uptake activity of untransfected L-M cells” value in the data set on L-M cells [5] was “unaffected”. The “effect of competing ligand on [3H]-5HT uptake, L-S1” value in [6] is recorded as “significantly inhibited”.
`CNCCCN1c2ccccc2CCc2ccccc21` [Desipramine, desipramine]: the IC50 in data set [3] is 620 nM.
On to `NCCCC(=O)O` [GABA, γ-aminobutyric acid], for which the “transport Vmax of GABA, L-M cells” value in the data set with L-M cells [7] worked out at 2.1 pmol/min/mg protein. Besides, the Km in the data set with L-M cells [7] (read-out: transport Km of GABA, L-M cells) is 697 µM; in data set [1] (2 to 500 μM [3H]GABA, L-M profile subtracted, read-out: transport Km of GABA, additional component in L-GAB1 cells) it was 110 µM; in [1] (2 to 500 μM [3H]GABA, low-affinity system, read-out: transport Km of GABA, system common to L-M and L-GAB1, L-GAB1 cells), 697 µM; in data set [2] (read-out: Km of high-affinity GABA transport systems in the CNS), < 25 µM and 50 to 100 µM. In data set [1] (2 to 500 μM [3H]GABA, L-M profile subtracted), the “transport Vmax of GABA, additional component in L-GAB1 cells” value was 2.4 pmol/min/mg protein. Besides, in data set [1] (2 to 500 μM [3H]GABA, low-affinity system), the “transport Vmax of GABA, system common to L-M and L-GAB1, L-GAB1 cells” value is recorded as 2.1 pmol/min/mg protein.
On to `CNCCC=C1c2ccccc2CCc2ccccc21` [Nortriptyline, nortriptyline], for which the IC50 in the data set with Rabbit Platelets was 900 nM.
As for `c1ccc2c3c([nH]c2c1)CNCC3` [Tryptoline], the IC50 with Human Platelets was 3800 nM; with Rat Synaptosomes, 2500 nM; in [4] it was 8000 nM; in data set [6] it was 4000 nM. The “inhibition of [3H]-5-HT uptake in words, L-S2” value in data set [4] is recorded as “relatively ineffective”. Moreover, the “inhibition of [3H]-5-HT uptake in words, L-S1” value in data set [6] is “relatively ineffective”.
With `O=C(O)C1CCCNC1` (racemic) [NA, (±)nipecotic acid], in data set [1], the “inhibition of total [3H]GABA uptake by L-GAB1 cells” value is listed as “less than 20%” and the “effect of GABA uptake inhibitors” value is “some effect”. In addition, in data set [2], the IC50 is 10000 to 200000 nM.
Regarding “human 5HT transporter (L-S1 cells) (Homo sapiens)”, in the data set with NCCc1c[nH]c2ccc(O)cc12 [8], the Km was 0.390 ± 0.096 µM and the Vmax amounted to 2.14 ± 0.55 pmol/mg/min.
For `COc1ccc2[nH]cc(CCN)c2c1` [5-methoxytryptamine], the figures for the IC50 (in the data set with Rat Synaptosomes; in [4]; in data set [6]) were 25000 nM, 1500 nM and 3500 nM, respectively.
Take `NCCc1c[nH]c2ccccc12` [Tryptamine, tryptamine]: the IC50 in the data set with Human Platelets was 2700 nM; in the data set on Rat Synaptosomes, 2800 nM; in data set [4], 900 nM; in data set [6] it was 130 nM.
On to `CN(C)CCC=C1c2ccccc2CCc2ccccc21` [Amitriptyline, amitriptyline], for which, in data set [3], the IC50 was 140 nM.
Turning to `NCCC(N)C(=O)O` (stereo not drawn) [DABA, 2,4-diaminobutyric acid], in [1], the “inhibition of total [3H]GABA uptake by L-GAB1 cells” value is given as “less than 20%” and the “effect of GABA uptake inhibitors” value was “some effect”. The IC50 in [2] is 10000 to 200000 nM.
Regarding `NCCc1c[nH]c2ccc(O)cc12` [5-HT, serotonin], the IC50 with Rat Synaptosomes was 150 nM. In addition, the “effect of excess unlabelled 5-HT on [3H]5-HT uptake, L-S2” value in data set [4] (kinetic assay, Lineweaver-Burk) was “significantly inhibited”. In addition, the “effect of competing ligand on [3H]-5HT uptake, L-S2” value in data set [4] (setting [11]) is reported as “significantly inhibited”. Besides, the “effect on 5-HT uptake activity of untransfected L-M cells” value with L-M cells [5] is “unaffected”. Further, the “effect on [3H]Glu uptake by L-Glul cells” value in data set [9] was “only unlabelled L-glutamate seems to mediate some inhibition”. In [6] (kinetic assay, Lineweaver-Burk), the “effect of excess unlabelled 5-HT on [3H]5-HT uptake, L-S1” value was “significantly inhibited”. Besides, the “effect of competing ligand on [3H]-5HT uptake, L-S1” value in data set [6] (setting [11]) is “significantly inhibited”.
With “human 5HT transporter (L-S2 cells) (Homo sapiens)”, in the data set with NCCc1c[nH]c2ccc(O)cc12 [10], the Km turned out to be 0.234 ± 0.027 µM and the Vmax amounted to 1.33 ± 0.13 pmol/mg/min.
